Assay [1] relates to Staphylococcus epidermidis TB-302. Put plainly: MIC by agar dilution method. The assay is classed as cell-based. Conditions: TB302, innoculum size 10^4 CFU/ml, 37° C., 18 to 20 hours, read-out: Minimum Inhibitory Concentration (MIC). The source says:
(1) Preparation of bacterial suspensions
(3) Determination of MIC values

Assay [2] concerns Escherichia coli W-677/JR 762. Put plainly: MIC by agar dilution method. To be noted: W677/JR762, 20 h, read-out: Minimum Inhibitory Concentration (MIC). In general terms: Agar dilution tests growth on a series of plates holding different concentrations.
Procedure: (§1) MIC was determined by the following agar dilution method:
(§2) One loopful of a strain of bacteria to be tested on agar slant was inoculated into a medium for growth of inoculum (Trypto Soy Broth; Eiken Chemical Co.) and incubated at 37° C. overnight.
(§3) (2) Preparation of medium for antibacterial activity test
(§4) A sample solution of aminoglycoside derivative was subjected to serial two-fold dilutions with sterile water. These diluted sample solutions were distributed to the Modified Mueller Hinton Agar medium (Nissui-Seiyaku Co.), mixed gently and allowed to solidify.
(§5) One loopful of the bacterial suspension prepared in (1) was placed on the surface of the medium prepared in (2) containing the aminoglycoside derivative in various concentrations at 10^6 CFU/ml inoculum size.
Assay [3] has as its system Klebsiella pneumoniae Kl-168. Kind of assay: MIC by agar dilution method. To be noted: KL168, 20 h, read-out: Minimum Inhibitory Concentration (MIC).
Procedure: as §1, §2, §3, §4, §5
Assay [4] relates to Proteus morganii Morg. 96. Put plainly: MIC by agar dilution method. To be noted: Morganella morganii, MORG.96, 20 h, read-out: Minimum Inhibitory Concentration (MIC).
Procedure: as §1, §2, §3, §4, §5
For assay [5] the following is noted: compared with kanamycin A; cited from earlier work.

Each structure is given as a SMILES string. Values after ≈ are worked out from the molar mass of the structure shown.

As to `NC[C@H]1O[C@H](O[C@H]2[C@H](O)[C@@H](O[C@H]3O[C@H](CO)[C@@H](O)[C@H](N)[C@H]3O)[C@H](N)C[C@@H]2N)[C@H](N)C[C@@H]1O` [TOB, tobramycin], the MIC in assay [1] is 3.1 µg/mL (≈ 6.63 µM); in assay [2], 50 µg/mL (≈ 107 µM); in assay [3], 100 µg/mL (≈ 214 µM); in assay [4] it was 25 µg/mL (≈ 53.5 µM).
Consider `NCC1=CC[C@@H](N)[C@@H](O[C@H]2[C@H](O)[C@@H](O[C@H]3O[C@H](CO)[C@@H](O)[C@H](N)[C@H]3O)[C@H](N)C[C@@H]2N)O1` [[A], O-[3-amino-3-deoxy-α-D-glucopyranosyl-(1→6)]-O-[2,6-diamino-2,3,4,6-tetradeoxy-α-D-glycero-hex-4-enopyranosyl-(1→4)]-2-deoxy-D-streptamine], for which the MIC in assay [1] was found to be 0.2 µg/mL (≈ 0.445 µM); in assay [2], 12.5 µg/mL (≈ 27.8 µM); in assay [3], 50 µg/mL (≈ 111 µM); in assay [4], 12.5 µg/mL (≈ 27.8 µM).
Turning to `NCC[C@H](O)C(=O)N[C@@H]1C[C@H](N)[C@@H](O[C@H]2O[C@H](CN)[C@@H](O)[C@H](O)[C@H]2O)[C@H](O)[C@H]1O[C@H]1O[C@H](CO)[C@@H](O)[C@H](N)[C@H]1O` [amikacin], in assay [5], the antimicrobial activity entry is given as “more potent than kanamycin A”.

The record behind these values is US4273923A, “Process for preparing aminoglycoside derivatives” (Shionogi & Co., Ltd., priority 1979, dated 1981).
